Measurements from publication PMC7794544, “Microbial production of multiple short-chain primary amines via retrobiosynthesis” (Nature Communications, 2021).

What was measured:
VlmD [1] = biological target: T1, VlmD (Streptomyces viridifaciens, UniProt Q84F32); assay: HPLC (OPA derivatization) of n-butylamine formed; LC-MS confirmation; assay type: biochemical; conditions: 1 mM substrate, 0.1 mM PLP, 150 ug/mL enzyme, 50 mM potassium phosphate pH 7.5, 37 °C, 2 h
T1 construct: N-terminal His6 tag, codon-optimised gene in pET-22b(+), E. coli BL21(DE3), Talon resin
T1 sequence (Q84F32 entry or part of it): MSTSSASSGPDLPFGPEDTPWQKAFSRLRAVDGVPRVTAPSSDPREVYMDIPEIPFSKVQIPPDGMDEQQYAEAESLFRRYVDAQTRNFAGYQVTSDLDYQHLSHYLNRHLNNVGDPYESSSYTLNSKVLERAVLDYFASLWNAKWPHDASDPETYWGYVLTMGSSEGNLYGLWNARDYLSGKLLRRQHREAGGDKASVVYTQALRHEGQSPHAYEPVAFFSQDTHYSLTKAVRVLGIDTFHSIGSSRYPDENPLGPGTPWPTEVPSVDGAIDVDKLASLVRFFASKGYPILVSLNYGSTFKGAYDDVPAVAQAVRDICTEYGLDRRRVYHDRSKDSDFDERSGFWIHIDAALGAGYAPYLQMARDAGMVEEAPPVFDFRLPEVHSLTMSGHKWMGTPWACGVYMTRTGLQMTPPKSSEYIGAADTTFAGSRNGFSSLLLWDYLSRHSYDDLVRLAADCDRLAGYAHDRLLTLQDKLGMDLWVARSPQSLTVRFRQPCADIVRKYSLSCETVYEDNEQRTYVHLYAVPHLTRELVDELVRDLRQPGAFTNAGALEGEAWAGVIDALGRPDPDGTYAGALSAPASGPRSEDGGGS

VlmD [2] = biological target: T1, VlmD; assay: HPLC (OPA derivatization) of iso-butylamine formed; LC-MS confirmation; assay type: biochemical; conditions: 1 mM substrate, 0.1 mM PLP, 150 ug/mL enzyme, 50 mM potassium phosphate pH 7.5, 37 °C, 2 h

SMILES	HPLC (OPA derivatization) of n-butylamine formed; LC-MS confirmation (VlmD [1])	HPLC (OPA derivatization) of iso-butylamine formed; LC-MS confirmation (VlmD [2])
CCC[C@H](N)C(=O)O [L-norvaline]	VlmD showed relatively high activity toward L-2-aminobutyrate, L-norvaline, L-valine	
CC(C)[C@H](N)C(=O)O [L-valine]		VlmD consistently showed activities toward L-valine, L-leucine, and L-isoleucine as in the previous study
